# Data taken from article PMC11990670, “Exploring the Volatility, Phase Transitions, and Solubility Properties of Five Halogenated Benzaldehydes” (Molecules, 2025).
# Marks after values point to notes of the source that are not given here.
# Experiments:
# [1] = Gibbs energy of hydration and Henry's law volatility constant calculated from sublimation and solubility data; conditions: 25 °C; for Gibbs energy of hydration ΔhydrGm°: calculated by Equation (4); for log10(KHpc/kPa·m^3·mol^−1) Henry's law volatility constant: calculated by Equation (6); for KHpc×10^3 Henry's law volatility constant: value is KHpc multiplied by 10^3
# Summary of the method: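 Aqueous solubility of each purified compound measured by UV absorbance (260–306 nm by compound); residual solids checked by DSC and XRD for phase change. ΔhydrGm° derived from solubility and sublimation Gibbs energy (Eq. 4; standard states p° = 1 × 10^5 Pa, c° = 1 mol·L^−1), then converted to Henry's law volatility constants (log form).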
# [2] = Vapor pressures of crystalline and liquid phases, static method with capacitance diaphragm gauge; type: physicochemical
# Summary of the method: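 Static method with capacitance diaphragm gauge (range 0.5 to 1.3 × 10^3 Pa, gauge at 473 K) on degassed crystalline and liquid samples; sample temperature by calibrated Pt100, u(T/K) = ±0.01. Connecting tubing held between sample and gauge temperatures; U(p/Pa) = 0.1 + 0.0050 (p/Pa) at k = 2.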
# [3] = pH of the saturated aqueous solutions; type: physicochemical; conditions: saturated aqueous solution of the solubility experiment
# Summary of the method: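 Excess solid stirred in water in triplicate, settled 2 h; pH of the saturated solution measured, then filtered (0.22 μm), diluted and quantified by UV absorbance against calibration curves at 298.15 K. Residual solids examined by DSC and XRD for phase changes.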
smiles,measurement,setting,value
"O=Cc1ccc(Cl)cc1Cl [2,4-Dichlorobenzaldehyde]",Gibbs energy of hydration ΔhydrGm°,[1],-3.94 kcal/mol
same,log10(KHpc/kPa·m^3·mol^−1) Henry's law volatility constant,[1],−2.50
same,KHpc×10^3 Henry's law volatility constant,[1],3.16 kPa·m^3·mol^−1
same,vapor pressure p,"[2]; crystalline phase, T = 285.78 K",0.64 Pa
same,vapor pressure p,"[2]; crystalline phase, T = 287.68 K",0.80 Pa
same,vapor pressure p,"[2]; crystalline phase, T = 289.73 K",1.02 Pa
same,vapor pressure p,"[2]; crystalline phase, T = 291.36 K",1.23 Pa
same,vapor pressure p,"[2]; crystalline phase, T = 293.15 K",1.50 Pa
same,vapor pressure p,"[2]; crystalline phase, T = 294.83 K",1.81 Pa
same,vapor pressure p,"[2]; crystalline phase, T = 296.85 K",2.29 Pa
same,vapor pressure p,"[2]; crystalline phase, T = 298.81 K",2.85 Pa
same,vapor pressure p,"[2]; crystalline phase, T = 301.19 K",3.67 Pa
same,vapor pressure p,"[2]; crystalline phase, T = 303.16 K",4.55 Pa
same,vapor pressure p,"[2]; crystalline phase, T = 305.23 K",5.65 Pa
same,vapor pressure p,"[2]; crystalline phase, T = 307.12 K",6.86 Pa
same,vapor pressure p,"[2]; crystalline phase, T = 308.88 K",8.29 Pa
same,vapor pressure p,"[2]; crystalline phase, T = 310.95 K",10.12 Pa
same,vapor pressure p,"[2]; crystalline phase, T = 313.23 K",12.78 Pa
same,vapor pressure p,"[2]; crystalline phase, T = 315.25 K",15.58 Pa
same,vapor pressure p,"[2]; crystalline phase, T = 317.80 K",20.05 Pa
same,vapor pressure p,"[2]; crystalline phase, T = 320.56 K",26.18 Pa
same,vapor pressure p,"[2]; crystalline phase, T = 322.93 K",32.84 Pa
same,vapor pressure p,"[2]; crystalline phase, T = 325.24 K",40.77 Pa
same,vapor pressure p,"[2]; crystalline phase, T = 327.66 K",50.25 Pa
same,vapor pressure p,"[2]; crystalline phase, T = 329.75 K",60.90 Pa
same,vapor pressure p,"[2]; crystalline phase, T = 331.73 K",72.78 Pa
same,vapor pressure p,"[2]; crystalline phase, T = 333.66 K",85.89 Pa
same,vapor pressure p,"[2]; crystalline phase, T = 335.72 K",102.0 Pa
same,vapor pressure p,"[2]; crystalline phase, T = 337.64 K",119.1 Pa
same,vapor pressure p,"[2]; crystalline phase, T = 339.73 K",141.9 Pa
same,vapor pressure p,"[2]; crystalline phase, T = 341.66 K",166.2 Pa
same,vapor pressure p,"[2]; liquid phase, T = 344.36 K",207.6 Pa
same,vapor pressure p,"[2]; liquid phase, T = 346.33 K",233.6 Pa
same,vapor pressure p,"[2]; liquid phase, T = 348.33 K",261.6 Pa
same,vapor pressure p,"[2]; liquid phase, T = 349.66 K",282.0 Pa
same,vapor pressure p,"[2]; liquid phase, T = 351.41 K",310.8 Pa
same,vapor pressure p,"[2]; liquid phase, T = 353.17 K",342.8 Pa
same,vapor pressure p,"[2]; liquid phase, T = 355.39 K",390.3 Pa
same,vapor pressure p,"[2]; liquid phase, T = 357.59 K",437.4 Pa
same,vapor pressure p,"[2]; liquid phase, T = 359.46 K",479.4 Pa
same,vapor pressure p,"[2]; liquid phase, T = 361.34 K",533.0 Pa
same,vapor pressure p,"[2]; liquid phase, T = 363.54 K",603.2 Pa
same,vapor pressure p,"[2]; liquid phase, T = 365.63 K",668.2 Pa
same,vapor pressure p,"[2]; liquid phase, T = 367.44 K",733.6 Pa
same,vapor pressure p,"[2]; liquid phase, T = 369.34 K",810.6 Pa
same,vapor pressure p,"[2]; liquid phase, T = 371.29 K",885.4 Pa
same,vapor pressure p,"[2]; liquid phase, T = 373.62 K",998.4 Pa
same,vapor pressure p,"[2]; liquid phase, T = 375.74 K",1100 Pa
same,vapor pressure p,"[2]; supercooled liquid, T = 324.34 K",57.72 ^d Pa
same,vapor pressure p,"[2]; supercooled liquid, T = 326.40 K",66.54 ^d Pa
same,vapor pressure p,"[2]; supercooled liquid, T = 328.22 K",75.25 ^d Pa
same,vapor pressure p,"[2]; supercooled liquid, T = 330.22 K",85.67 ^d Pa
same,vapor pressure p,"[2]; supercooled liquid, T = 332.21 K",97.72 ^d Pa
same,vapor pressure p,"[2]; supercooled liquid, T = 334.17 K",110.6 ^d Pa
same,vapor pressure p,"[2]; supercooled liquid, T = 336.16 K",125.6 ^d Pa
same,vapor pressure p,"[2]; supercooled liquid, T = 338.15 K",141.4 ^d Pa
same,vapor pressure p,"[2]; supercooled liquid, T = 340.44 K",163.3 ^d Pa
same,vapor pressure p,"[2]; supercooled liquid, T = 342.29 K",184.1 Pa
same,pH of the saturated solution,[3],6.57
O=Cc1ccc(Br)cc1 [4-Bromobenzaldehyde],Gibbs energy of hydration ΔhydrGm°,[1],-4.49 kcal/mol
same,log10(KHpc/kPa·m^3·mol^−1) Henry's law volatility constant,[1],−2.90
same,KHpc×10^3 Henry's law volatility constant,[1],1.26 kPa·m^3·mol^−1
same,vapor pressure p,"[2]; crystalline phase, T = 283.09 K",0.83 Pa
same,vapor pressure p,"[2]; crystalline phase, T = 285.23 K",1.07 Pa
same,vapor pressure p,"[2]; crystalline phase, T = 287.05 K",1.33 Pa
same,vapor pressure p,"[2]; crystalline phase, T = 289.17 K",1.71 Pa
same,vapor pressure p,"[2]; crystalline phase, T = 291.17 K",2.13 Pa
same,vapor pressure p,"[2]; crystalline phase, T = 292.95 K",2.63 Pa
same,vapor pressure p,"[2]; crystalline phase, T = 295.00 K",3.25 Pa
same,vapor pressure p,"[2]; crystalline phase, T = 297.08 K",4.12 Pa
same,vapor pressure p,"[2]; crystalline phase, T = 298.95 K",4.98 Pa
same,vapor pressure p,"[2]; crystalline phase, T = 301.06 K",6.27 Pa
same,vapor pressure p,"[2]; crystalline phase, T = 302.93 K",7.60 Pa
same,vapor pressure p,"[2]; crystalline phase, T = 304.86 K",9.21 Pa
same,vapor pressure p,"[2]; crystalline phase, T = 306.87 K",11.43 Pa
same,vapor pressure p,"[2]; crystalline phase, T = 308.76 K",13.82 Pa
same,vapor pressure p,"[2]; crystalline phase, T = 310.84 K",17.02 Pa
same,vapor pressure p,"[2]; crystalline phase, T = 312.78 K",20.28 Pa
same,vapor pressure p,"[2]; crystalline phase, T = 314.77 K",24.88 Pa
same,vapor pressure p,"[2]; crystalline phase, T = 316.79 K",29.92 Pa
same,vapor pressure p,"[2]; crystalline phase, T = 318.78 K",36.33 Pa
same,vapor pressure p,"[2]; crystalline phase, T = 320.66 K",43.34 Pa
same,vapor pressure p,"[2]; crystalline phase, T = 322.62 K",51.66 Pa
same,vapor pressure p,"[2]; crystalline phase, T = 324.68 K",61.49 Pa
same,vapor pressure p,"[2]; liquid phase, T = 330.60 K",103.9 Pa
same,vapor pressure p,"[2]; liquid phase, T = 332.51 K",117.8 Pa
same,vapor pressure p,"[2]; liquid phase, T = 334.45 K",131.9 Pa
same,vapor pressure p,"[2]; liquid phase, T = 336.48 K",148.9 Pa
same,vapor pressure p,"[2]; liquid phase, T = 338.43 K",168.4 Pa
same,vapor pressure p,"[2]; liquid phase, T = 340.46 K",189.9 Pa
same,vapor pressure p,"[2]; liquid phase, T = 342.44 K",213.5 Pa
same,vapor pressure p,"[2]; liquid phase, T = 344.41 K",240.4 Pa
same,vapor pressure p,"[2]; liquid phase, T = 346.34 K",266.7 Pa
same,vapor pressure p,"[2]; liquid phase, T = 348.34 K",300.1 Pa
same,vapor pressure p,"[2]; liquid phase, T = 350.32 K",333.2 Pa
same,vapor pressure p,"[2]; liquid phase, T = 352.34 K",375.3 Pa
same,vapor pressure p,"[2]; liquid phase, T = 354.27 K",418.5 Pa
same,vapor pressure p,"[2]; liquid phase, T = 356.26 K",463.6 Pa
same,vapor pressure p,"[2]; liquid phase, T = 358.21 K",513.4 Pa
same,vapor pressure p,"[2]; liquid phase, T = 360.13 K",573.1 Pa
same,vapor pressure p,"[2]; liquid phase, T = 362.14 K",628.6 Pa
same,vapor pressure p,"[2]; liquid phase, T = 364.12 K",701.8 Pa
same,vapor pressure p,"[2]; liquid phase, T = 366.10 K",775.8 Pa
same,vapor pressure p,"[2]; liquid phase, T = 368.08 K",860.4 Pa
same,vapor pressure p,"[2]; liquid phase, T = 370.05 K",946.6 Pa
same,vapor pressure p,"[2]; liquid phase, T = 371.99 K",1026 Pa
same,vapor pressure p,"[2]; liquid phase, T = 373.98 K",1147 Pa
same,vapor pressure p,"[2]; supercooled liquid, T = 316.76 K",39.76 ^d Pa
same,vapor pressure p,"[2]; supercooled liquid, T = 318.77 K",46.26 ^d Pa
same,vapor pressure p,"[2]; supercooled liquid, T = 320.73 K",53.22 ^d Pa
same,vapor pressure p,"[2]; supercooled liquid, T = 322.70 K",60.73 ^d Pa
same,vapor pressure p,"[2]; supercooled liquid, T = 324.68 K",69.79 ^d Pa
same,vapor pressure p,"[2]; supercooled liquid, T = 326.64 K",79.36 ^d Pa
same,vapor pressure p,"[2]; supercooled liquid, T = 328.63 K",90.64 ^d Pa
same,pH of the saturated solution,[3],6.82
